Laboratory results taken from paper PMC11380953, “Multivalent, calcium-independent binding of surfactant protein A and D to sulfated glycosaminoglycans of the alveolar epithelial glycocalyx” (American Journal of Physiology - Lung Cellular and …, 2024).

biological target: T1, hSP-A (Homo sapiens, UniProt Q8IWL1+Q8IWL2); assay: Binding inhibition assay (hSP-A binding to coated mannan); details: GAGs 15 µM to 30 nM, 5 mM CaCl2 (Fig. 1G)
T1 construct: Human PAP patient, BAL isolated; from tissue; host or cells: bronchoalveolar lavage fluid of a patient with pulmonary alveolar proteinosis
T1 sequence (Q8IWL2 21-248): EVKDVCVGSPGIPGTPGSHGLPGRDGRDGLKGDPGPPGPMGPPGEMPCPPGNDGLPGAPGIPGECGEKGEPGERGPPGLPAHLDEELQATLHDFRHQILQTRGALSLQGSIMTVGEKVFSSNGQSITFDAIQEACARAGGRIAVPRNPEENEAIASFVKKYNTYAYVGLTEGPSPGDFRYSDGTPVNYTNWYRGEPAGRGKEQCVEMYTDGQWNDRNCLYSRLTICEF
T1 sequence (Q8IWL1 21-248): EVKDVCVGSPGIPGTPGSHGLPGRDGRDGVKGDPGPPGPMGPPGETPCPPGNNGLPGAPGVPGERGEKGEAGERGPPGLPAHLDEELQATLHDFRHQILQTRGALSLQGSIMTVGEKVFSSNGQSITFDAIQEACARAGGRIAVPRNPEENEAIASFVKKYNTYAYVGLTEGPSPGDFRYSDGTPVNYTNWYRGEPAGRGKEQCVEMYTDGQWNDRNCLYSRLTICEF
Protocol: Following previously described assays ([41], [42]), 96-well plates (83.3924.005, Sarstaedt AG, Nümbrecht, Germany) were coated with 70 ng/well (total volume of 100 µL/well) of mannan (M7504, Sigma-Aldrich, St. Louis) dissolved in 0.1 M NaHCO3 buffer (pH 9.6) overnight at 4°C. After removal of the coating solution, wells were blocked with 100 µL of 5 mM Tris with 2% BSA (Serva, Heidelberg, Germany) at room temperature for 2 h. Plates were washed three times with 100 µL/well washing buffer (5 mM Tris, 0.9% NaCl, 0.05% Tween-20, and 5 mM CaCl2). Next, different concentrations of HA, HS, or CS ranging from 15 µM to 30 nM and hSP-A at 14 ng/well were added to washing buffer with 0.1% BSA. The plate was incubated for 2 h at room temperature to allow the protein to bind to either mannan or GAGs. After subsequent washing, as stated before, mannan-bound hSP-A was immunodetected by incubation with a specific anti-SP-A antibody (ab190087, Abcam, Cambridge, UK) at a 0.5 µg/mL concentration for 2 h at room temperature in washing buffer. After washing the excess of antibody, a secondary antibody conjugated with HRP (horseradish peroxidase) anti-goat (Abcam, ab 6885, Cambridge, UK) was added at 2 µg/mL for 1 h at room temperature. After washing, the color reaction was developed by adding 50 µL of TMB liquid substrate (T0440, Sigma-Aldrich, St. Louis). After 30 min, the reaction was stopped by adding 50 µL of Stop Reagent (S5814, Sigma-Aldrich, St. Louis) and the plate was read at 450 nm in a plate reader (FLUOstar Omega, BMG Labtech, Ortenberg, Germany).
The data of the binding inhibition assay were analyzed in GraphPad Prism 9.5.1 using the “normalize” function and fitting to the nonlinear regression dose-response inhibition. […] The fluorescence values from the collectin-based binding assay were normalized using the same “normalize” function in GraphPad, and the statistical test used was the “non-parametric Kruskal-Wallis” test. The statistical test used for the DMMB assay for GAG quantification was also the “non-parametric Kruskal-Wallis” test.

hSP-A binding inhibition to mannan, in the µM range:
hyaluronic acid sodium salt [HA]
chondroitin sulfate sodium salt [CS]
heparan sulfate sodium [HS]
